Structure (SMILES) | melting point [°C]
O=C(O)CC1=NN(c2ccc(Cl)nn2)C(=O)C1 | 183 to 185
Nc1ccnc2ccncc12 | 254 to 256
OC(CC1COCCN1)c1ccccc1 (stereo not given) | 74 to 76
O=C(O)c1cnn(Cc2ccccc2Cl)c1 | 144 to 146
CC(C)(C)OC(=O)NC1CC2CCCC(C1)C2N (stereo not given) | 110 to 112
COC(=O)c1ccc(N)cc1C | 69 to 71
O=S(=O)(O)c1ccnc2ccccc12 | 317 to 319
NN=c1ccc(C(N)=O)n[nH]1 | 251 to 253
CN(C)C(=N)CC#N | 79 to 81
Nc1c[nH]nc1-c1ccccc1 | 147 to 149
Cc1ccc(-n2cnnc2SCC(=O)O)cc1 | 218 to 220
Nc1cccnc1OCc1ccccc1 | 51 to 53
Cn1ncc(C(=O)O)c1-c1ccccc1 | 213 to 215
O=C(O)C1CCN(S(=O)(=O)c2cccc3c2N=S=N3)CC1 | 232 to 234
O=[N+]([O-])c1ncn(CCO)n1 | 76 to 78
Clc1ccc(NCc2cccnc2)c(Cl)c1 | 76 to 78
O=C(O)C1CCc2[nH]ncc2C1 (stereo not given) | 229 to 231
O=C(O)CSCc1ccc(Cl)cc1 | 57 to 59
CN(C)C(=O)c1ccc(F)nc1 | 44 to 46
O=c1nc(CCl)[nH][nH]1 | 179 to 181
CC(C)CC1NC(=O)NC1=O (stereo not given) | 215 to 217
Cc1ccc2c(n1)OCCN2 | 109 to 111
Sc1nnc(N2CCCCC2)s1 | 165 to 167
CC(C)(C)OC(=O)NC1CC1(F)F (stereo not given) | 73 to 75
CCCOc1ccc(NS(C)(=O)=O)cc1 | 118 to 120

Structure (SMILES) | melting point [°C]
COC(=O)c1ccc(N)c([N+](=O)[O-])c1 | 201 to 203
COC1CCN(C(=O)Nc2cccc(C(C)=O)c2)CC1 | 104 to 106
Cc1ccc(C(=O)CCl)s1 | 45 to 47
N#CCC(=O)c1cccc(Br)c1 | 94 to 96
Nc1ccc2c(c1)C(=O)NCC2 | 119 to 121
O=Cc1nccc2ccccc12 | 51 to 53
Cc1sc(=O)n(CC(=O)O)c1-c1ccc(F)cc1 | 139 to 141
Nc1cc(Cl)c(-c2cc(Cl)c(N)cc2Cl)cc1Cl | 135 to 140
Nc1ccc(S(=O)C(F)(F)F)cc1 (stereo not given) | 76 to 78
CC(C(=O)O)N1CCSCC1 (stereo not given) | 199 to 201
COc1ccc(C(=O)NCC(=O)O)cc1[N+](=O)[O-] | 98 to 100
CNC(=O)CNc1cccc(OC)c1 | 78 to 80
O=C(O)CCc1nnc(-c2ccccc2)o1 | 144 to 146
COc1ccc(C(=O)CBr)cc1OC | 83 to 85
N#Cc1ccc(Cl)cc1NC1CCCCC1 | 74 to 76
CC1(C)CCC(CC(=O)O)c2ccccc21 (stereo not given) | 81 to 83
O=C(O)CNC(=O)c1cc(-c2ccccc2)on1 | 208 to 210
CC(C)(C)OC(=O)Nc1cccc(CCl)c1 | 103 to 105
O=C(O)C=Cc1ccnc2ccccc12 | 256 to 258
NS(=O)(=O)c1c(Cl)cccc1C(F)(F)F | 155 to 157
O=S(=O)(c1cccc(CCl)c1)N1CCOCC1 | 92 to 94
CC(C)Nc1nnc(S)s1 | 194 to 196
Cc1nc2sccn2c1C(N)=S | 232 to 234
COc1cc(NC(=O)Cc2cccs2)c(C(=O)O)cc1OC | 195 to 197
COC(=O)C(=O)CC(=O)c1ccccc1C | 59 to 61

Structure (SMILES) | melting point [°C]
COc1ccc(Oc2ccc(S(N)(=O)=O)cc2)cc1 | 169 to 171
COc1ccc(CNS(C)(=O)=O)cc1 | 89 to 91
O=C(O)CN1CCN(C(=O)OCc2ccccc2)CC1 | 142 to 144
Cc1ccc(C(C)(C)CC(=O)O)cc1 | 50 to 57
CN1CCCC(N(C)C(=O)c2ccc(N)cc2)C1 (stereo not given) | 116 to 118
O=C(O)CNS(=O)(=O)c1ccc(Cl)c([N+](=O)[O-])c1 | 150 to 152
O=C(O)CS(=O)(=O)Cc1cccs1 | 107 to 109
CCOC(=O)c1sc(N)c(C#N)c1CBr | 206 to 208
Cc1ccc(-n2cc(SC(=O)N(C)C)cn2)cc1 | 95 to 97
COC(=O)C(=O)CC(=O)c1ccccc1 | 58 to 60
Nc1nc(-c2ccc[nH]2)cs1 | 155 to 159
O=S(=O)(O)c1ccc2c(c1)CCCO2 | 80 to 82
CSc1c[nH]nc1N | 76 to 78
O=C1C2C3CC4C5C3C1C5C1(OCCO1)C42 (stereo not given) | 73 to 75
CC(N)c1ccc2[nH]c(=O)[nH]c2c1 (stereo not given) | 394 to 396
COc1ccc(Cn2c(N)nc3ccccc32)cn1 | 173 to 175
N#Cc1ccc(SCCC(=O)O)cc1 | 86 to 88
CC(C)(C#N)NC(=O)c1ccccc1 | 166 to 168
CC(Cl)c1nnc(-c2ccc(Cl)cc2Cl)o1 (stereo not given) | 55 to 57
COc1cc(CCl)ccc1OCc1cccc(C#N)c1 | 95 to 97
CNC(C)c1ccc(S(N)(=O)=O)cc1 (stereo not given) | 145 to 147
CCS(=O)(=O)N(C)CC(=O)O | 70 to 72
O=C(O)c1ccc(NC(=O)N2CCCCC2)c(F)c1 | 179 to 181
CCOC(=O)c1c(-c2ccccc2)csc1NC(=O)CCCl | 64 to 66
CC1(C)C(=O)Nc2ccc(C(=O)CCl)cc21 | 233 to 235

Structure (SMILES) | melting point [°C]
Sc1nc(/C=C/c2ccccc2)n[nH]1 | 277 to 279
Nc1nc(C2CC2)c(Cc2ccccc2Cl)s1 | 127 to 129
C1CCc2nnc(C3CCCNC3)n2CC1 (stereo not given) | 171 to 173
CCCCn1c(N)cc(=O)[nH]c1=O | 238 to 240
CN(C)CCOc1cc(C(=O)O)ccn1 | 173 to 175
NC(=O)CCCCCl | 76 to 78
COC(=O)Cc1ccccc1O | 69 to 71
O=Cc1cn(-c2ccccc2)nc1-c1ccc(Cl)cc1 | 125 to 127
CCOC(=O)c1ccn(-c2cccc(N)c2)n1 | 97 to 99
O=C(O)C1CCCN1C(=O)c1ccc([N+](=O)[O-])o1 (stereo not given) | 154 to 156
Cn1ncnc1COc1ccc(S(N)(=O)=O)cc1 | 176 to 178
Nc1nc2cc(S(=O)(=O)N3CCCC3)ccc2o1 | 240 to 242
CC(=NO)c1ccc(OCc2ccccc2C)cc1 | 153 to 155
NS(=O)(=O)c1ccc2c(c1)OCCO2 | 197 to 199
CC(C)Oc1nnc(S)s1 | 105 to 107
Nc1nc(-c2cc(Br)cs2)cs1 | 149 to 151
N#CCOc1cccc(CC(=O)O)c1 | 79 to 81
O=C1Nc2cc3c(cc2C1=O)OCCCO3 | 230 to 232
COc1ccc(C(=O)O)cc1S(=O)(=O)NC1CCCCC1C (stereo not given) | 201 to 203
O=C(O)c1noc(-c2cc(F)cc(F)c2)n1 | 136 to 138
CC(Sc1nnnn1C1CC1)C(=O)O (stereo not given) | 116 to 118
Cn1cc(S(N)(=O)=O)cn1 | 121 to 123
Cc1cc(CO)ncn1 | 74 to 76
CCOc1ccccc1OCC(=O)NN | 94 to 96
Oc1ccc2cn[nH]c2c1 | 189 to 191

Structure (SMILES) | melting point [°C]
C=CC(=O)NCc1ccc(C(=O)O)cc1 | 197 to 199
Cc1cccc(NC(=O)N2CCNCC2)c1 | 109 to 111
Cc1noc2nc(-c3cccc(Cl)c3)cc(C(=O)O)c12 | 239 to 241
Cc1sc(=O)[nH]c1-c1ccccc1 | 171 to 173
CNS(=O)(=O)c1ccc(CN)cc1 | 111 to 113
Cc1nn(CC(F)(F)F)c(C)c1C(C)C(=O)O (stereo not given) | 130 to 132
N#Cc1ccccc1S(=O)(=O)N1CCN(C(=O)CCl)CC1 | 206 to 208
O=C(CCl)Nc1ccc2[nH]c(C(F)(F)F)nc2c1 | 217 to 219
CCCCc1nc(-c2cccc(O)c2)no1 | 51 to 53
CC1=NN(c2ccc(Cl)nn2)C(=O)C1 | 229 to 231
NCc1noc(-c2cccs2)n1 | 146 to 148
CC(=O)c1cc(C)cc(C(C)=O)c1O | 50 to 52
COCc1nc(CC(=O)O)cs1 | 59 to 61
O=C(O)c1cc(-c2ccccc2)nc2c1cnn2Cc1ccncc1 | 279 to 281
Nc1ccnc(Cc2ccccc2)n1 | 143 to 145
Nc1ccc2c(c1)CCO2 | 71 to 73
NC(=O)Cn1cc(NC(=O)OCC(F)(F)F)cn1 | 150 to 152
COc1ccc(OC)c(-c2csc(N)n2)c1 | 113 to 115
COc1ccc(C(=O)c2cccc3ccccc23)cc1 | 95 to 97
CC1(C)CC(=O)c2sc(N)nc2C1 | 212 to 214
CCCCOc1ccc(-c2nnc(N)o2)cc1 | 229 to 231
O=C(O)CSc1nccs1 | 151 to 153
O=C(O)c1ccc(NS(=O)(=O)c2ccccc2)cc1 | 209 to 211
Cc1noc(C)c1S(=O)(=O)NC1(C(=O)O)CCCC1 | 176 to 178
NCC(=O)Nc1ccc(F)cc1 | 85 to 87

Structure (SMILES) | melting point [°C]
N=C(N)NN=Cc1ccccc1 | 179 to 181
O=C(O)c1ccc(Cl)c(S(=O)(=O)Nc2ccc(Cl)cc2)c1 | 214 to 216
CN(C)S(=O)(=O)c1ccc2c(c1)NCCC2 | 130 to 132
O=C(CCl)NCc1ccco1 | 81 to 83
OC(CNCc1ccccc1)c1cccs1 (stereo not given) | 95 to 97
NCC(=O)Nc1cccc2ncccc12 | 128 to 130
O=C(O)CN1C(=O)c2cccnc2C1=O | 239 to 241
Clc1nncc2ccoc12 | 117 to 119
O=C(O)CCc1ccc([N+](=O)[O-])cc1[N+](=O)[O-] | 124 to 126
CN(Cc1cnn(C)c1)C(=O)CCl | 35 to 37
NS(=O)(=O)c1ccc([N+](=O)[O-])nc1 | 174 to 176
CCOC(=O)c1cc(Br)cc(S(N)(=O)=O)c1 | 119 to 121
CCc1ccc(C(=O)O)cc1N | 146 to 148
O=C(O)C1CC(O)CN1C(=O)Cc1ccccc1F (stereo not given) | 201 to 203
NC(=S)N1CCCC1 | 140 to 142
O=C1CN=C(S)N1Cc1ccccc1 | < 17
Cc1nn(-c2ccc(Cl)cc2)c(C)c1C(=O)O | 219 to 221
O=C(O)c1cccc(OCC(F)F)n1 | 94 to 96
COC(=O)C1Nc2ccccc2S(=O)(=O)N1 (stereo not given) | 171 to 173
Cc1cc(S(=O)(=O)Cl)ccc1[N+](=O)[O-] | 48 to 50

— a melting point compilation (Tetko et al.)
